From US11345702B1 (Myoforte Therapeutics, Inc., priority 2020, dated 2022) come the findings set out here.

A short description of series [1]: Liver microsome stability assay (MLM). Type of series: in vitro ADME. As to conditions: mouse liver microsomes. The method, then: A microsomal mixture (microsomes and Kphos buffer) was prepared at a concentration of 1.428 mg/mL in 2 mL tubes. To this microsomal mixture 1.6 μL (1 mM) of test compound and positive control were spiked; from this mixture, 70 μL was transferred to 96 well plate and pre-incubated at 37° C. for 5 min. After pre-incubation, the zero minute time point reaction was stopped using 100 μL of ice-cold acetonitrile containing internal standard and […] (3.33 mM in Kphos buffer) was added. The 45 minute time point reaction was initiated by addition of 30 μL of NADPH (3.33 mM in Kphos buffer) and incubated at 37° C. for 15 and 45 min. Reactions without NADPH and buffer controls (minus NADPH) at 0, 15, and 45 minutes were also incubated to rule out non-NADPH metabolism or chemical instability in the incubation buffer. Incubation reactions were stopped with 100 μL of ice-cold acetonitrile containing internal standard. The plates were centrifuged at 4000 RPM for 15 min and 100 μL aliquots were submitted for analysis by LC-MS/MS. (Verapamil in human liver microsomes (HLM) and rat liver microsomes (RLM) was used as positive controls. Imipramine in mouse liver microsomes (MLM) was used as a positive control.) Samples were monitored for parent compound disappearance in MRM mode (multiple reaction monitoring) using LC-MS/MS. The peak area ratios of analyte versus internal standard were used to calculate the % remaining at the end of 45 minutes in the presence of NADPH.

The next series concerns the target 15-PGDH/HPGD (Homo sapiens (Human), UniProt P15428). Briefly: hPGDH inhibitor screening biochemical assay. The conditions noted are these: read-out: hPGDH: Average IC50. The essentials: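 Ten-point dose-response inhibition of 15-PGDH measured by fluorescence (340/485 nm) after 10 min at room temperature with PGE2 (15 μM) and NAD+ (0.25 mM), following 10 min enzyme (10 nM)–compound pre-incubation at 37 °C. Buffer: 50 mM Tris-HCl pH 7.5, 0.01% Tween 20. Percent inhibition relative to 1% DMSO; four-parameter IC50.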

15-PGDH/HPGD, sequence (P15428 whole entry): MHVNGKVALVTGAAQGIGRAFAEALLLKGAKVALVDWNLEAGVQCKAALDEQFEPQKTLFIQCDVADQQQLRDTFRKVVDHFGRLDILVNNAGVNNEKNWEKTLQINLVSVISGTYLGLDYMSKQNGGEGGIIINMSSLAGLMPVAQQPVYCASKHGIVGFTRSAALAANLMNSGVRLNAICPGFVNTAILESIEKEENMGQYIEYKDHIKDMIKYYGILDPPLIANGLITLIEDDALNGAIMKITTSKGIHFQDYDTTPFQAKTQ

On to `CCC(CC)NC(=O)c1cncc(-n2ccc3cc(C(=O)N4CCC(F)(F)CC4)cnc32)c1` [MF-DH-407, 5-(5-(4,4-difluoropiperidine-1-carbonyl)-1H-pyrrolo[2,3-b]pyridin-1-yl)-N-(pentan-3-yl)nicotinamide], for which the “MLM + NADPH (% remaining at 45 min)” value in series [1] is listed as 51%. The IC50 on 15-PGDH/HPGD was less than 100 nM.

Turning to `N/C(=N\O)c1ccc(-n2ccc3cc(C(=O)N4CCCCC4)cnc32)cc1` [MF-DH-399], the “MLM + NADPH (% remaining at 45 min)” value in series [1] stood at 6%. Moreover, on 15-PGDH/HPGD, the IC50 is less than 100 nM.

In the case of `O=C(NC1CCS(=O)(=O)CC1)c1cc(Cl)cc(-n2ccc3cc(C(=O)N4CCC(F)(F)CC4)cnc32)c1`, the “MLM + NADPH (% remaining at 45 min)” value in series [1] stood at 81%. Besides, the IC50 on 15-PGDH/HPGD is less than 100 nM.

As for `O=C(c1cnc2c(ccn2-c2ccc(-c3n[nH]c(C4CC4)n3)nc2)c1)N1CCC(F)(F)CC1` [MF-DH-518, (1-(6-(5-cyclopropyl-1H-1,2,4-triazol-3-yl)pyridin-3-yl)-1H-pyrrolo[2,3-b]pyridin-5-yl)(4,4-difluoropiperidin-1-yl)methanone], the “MLM + NADPH (% remaining at 45 min)” value in series [1] turned out to be 92%. For the same compound, the IC50 on 15-PGDH/HPGD was less than 100 nM.

`O=C(NC1(C(=O)O)CC1)c1ccc(-n2ccc3cc(C(=O)N4CCC(F)(F)CC4)cnc32)cc1` [MF-DH-429]: the “MLM + NADPH (% remaining at 45 min)” value in series [1] is reported as 97%. Besides, the IC50 on 15-PGDH/HPGD is less than 100 nM.

On to `Cc1nc(-c2ccc(-n3c(CCC(C)(C)O)cc4cc(C(=O)N5CCC(F)(F)CC5)cnc43)cc2)no1` [MF-DH-542, (4,4-difluoropiperidin-1-yl)(2-(3-hydroxy-3-methylbutyl)-1-(4-(5-methyl-1,2,4-oxadiazol-3-yl)phenyl)-1H-pyrrolo[2,3-b]pyridin-5-yl)methanone], for which, in series [1], the “MLM + NADPH (% remaining at 45 min)” value worked out at 68%. Besides, the IC50 at 15-PGDH/HPGD is less than 100 nM.

Turning to `CC(C)(O)CCc1cc2cc(C(=O)N3CCC(F)(F)CC3)cnc2n1-c1ccc(C(=O)O)cc1` [MF-DH-538, 4-(5-(4,4-difluoropiperidine-1-carbonyl)-2-(3-hydroxy-3-methylbutyl)-1H-pyrrolo[2,3-b]pyridin-1-yl)benzoic acid], the “MLM + NADPH (% remaining at 45 min)” value in series [1] turned out to be 91%. The IC50 at 15-PGDH/HPGD is less than 100 nM.

On to `O=C(NC(CO)CO)c1ccc(-n2ccc3cc(C(=O)N4CCC(F)(F)CC4)cnc32)cc1` [MF-DH-412], for which the “MLM + NADPH (% remaining at 45 min)” value in series [1] was found to be 97%. Also, the IC50 at 15-PGDH/HPGD is less than 100 nM.

As for `CCOC(=O)Nc1cncc(-n2ccc3cc(C(=O)N4CCC(F)(F)CC4)cnc32)c1` [MF-DH-485, ethyl (5-(5-(4,4-difluoropiperidine-1-carbonyl)-1H-pyrrolo[2,3-b]pyridin-1-yl)pyridin-3-yl)carbamate], in series [1], the “MLM + NADPH (% remaining at 45 min)” value is on record as 80%. Moreover, the IC50 at 15-PGDH/HPGD is less than 100 nM.

`NC(=O)c1ccc(-n2ccc3cc(C(=O)N4CCCCC4)cnc32)cn1` [MF-DH-365]: the “MLM + NADPH (% remaining at 45 min)” value in series [1] came out at 41%. In addition, the IC50 at 15-PGDH/HPGD is less than 100 nM.

In the case of `CC(C)(C)CNC(=O)c1ccc(-n2ccc3cc(C(=O)N4CCC(F)(F)CC4)cnc32)cn1` [MF-DH-438, 5-(5-(4,4-difluoropiperidine-1-carbonyl)-1H-pyrrolo[2,3-b]pyridin-1-yl)-N-neopentylpicolinamide], the “MLM + NADPH (% remaining at 45 min)” value in series [1] turned out to be 63%. Moreover, the IC50 at 15-PGDH/HPGD was less than 100 nM.

With `O=C(c1cnc2c(ccn2-c2ccc3[nH]ncc3c2)c1)N1CCC(F)(F)CC1` [MF-DH-396], in series [1], the “MLM + NADPH (% remaining at 45 min)” value was 4%. For the same compound, on 15-PGDH/HPGD, the IC50 is less than 100 nM.

In the case of `Cc1nc(-c2cncc(-n3ccc4cc(C(=O)N5CCC(F)(F)CC5)cnc43)c2)no1` [MF-DH-470, (4,4-difluoropiperidin-1-yl)(1-(5-(5-methyl-1,2,4-oxadiazol-3-yl)pyridin-3-yl)-1H-pyrrolo[2,3-b]pyridin-5-yl)methanone], the “MLM + NADPH (% remaining at 45 min)” value in series [1] worked out at 74%. In addition, on 15-PGDH/HPGD, the IC50 was less than 100 nM.

With `O=C(c1cnc2c(ccn2-c2ccc(-c3nnn[nH]3)nc2)c1)N1CCC(F)(F)CC1` [MF-DH-452, (1-(6-(1H-tetrazol-5-yl)pyridin-3-yl)-1H-pyrrolo[2,3-b]pyridin-5-yl)(4,4-difluoropiperidin-1-yl)methanone], the “MLM + NADPH (% remaining at 45 min)” value in series [1] worked out at 90%. Further, the IC50 at 15-PGDH/HPGD is less than 100 nM.

`O=C(Nc1ccn(C2CC2)n1)c1cncc(-n2ccc3cc(C(=O)N4CCC(F)(F)CC4)cnc32)c1` [MF-DH-500, N-(1-cyclopropyl-1H-pyrazol-3-yl)-5-(5-(4,4-difluoropiperidine-1-carbonyl)-1H-pyrrolo[2,3-b]pyridin-1-yl)nicotinamide]: the “MLM + NADPH (% remaining at 45 min)” value in series [1] is reported as 60%. Besides, the IC50 at 15-PGDH/HPGD was less than 100 nM.

Regarding `CS(=O)(=O)NCCNC(=O)c1ccc(-n2ccc3cc(C(=O)N4CCC(F)(F)CC4)cnc32)cc1` [MF-DH-409, 4-(5-(4,4-difluoropiperidine-1-carbonyl)-1H-pyrrolo[2,3-b]pyridin-1-yl)-N-(2-(methylsulfonamido)ethyl)benzamide], the “MLM + NADPH (% remaining at 45 min)” value in series [1] was determined as 78%. Besides, the IC50 on 15-PGDH/HPGD was less than 100 nM.

Take `N/C(=N\O)c1cccc(-n2ccc3cc(C(=O)N4CCCCC4)cnc32)c1` [MF-DH-400]: the “MLM + NADPH (% remaining at 45 min)” value in series [1] turned out to be 0%. Also, the IC50 on 15-PGDH/HPGD is less than 100 nM.

As to `O=C(Nc1ccno1)c1cncc(-n2ccc3cc(C(=O)N4CCC(F)(F)CC4)cnc32)c1` [MF-DH-459, 5-(5-(4,4-difluoropiperidine-1-carbonyl)-1H-pyrrolo[2,3-b]pyridin-1-yl)-N-(isoxazol-5-yl)nicotinamide], in series [1], the “MLM + NADPH (% remaining at 45 min)” value came out at 31%. Further, the IC50 on 15-PGDH/HPGD is less than 100 nM.

Take `O=C(NCCO)c1ccc(-n2ccc3cc(C(=O)N4CCC(F)(F)CC4)cnc32)cc1` [MF-DH-413]: in series [1], the “MLM + NADPH (% remaining at 45 min)” value was 94%. Besides, the IC50 at 15-PGDH/HPGD was less than 100 nM.

Turning to `NC(=O)c1ccc(-n2cc(Cl)c3cc(C(=O)N4CCC(F)CC4)cnc32)cc1` [MF-DH-382, 4-(3-chloro-5-(4-fluoropiperidine-1-carbonyl)-1H-pyrrolo[2,3-b]pyridin-1-yl)benzamide], the “MLM + NADPH (% remaining at 45 min)” value in series [1] came to 26%. For the same compound, the IC50 on 15-PGDH/HPGD is less than 100 nM.

Consider `O=C(c1cnc2c(ccn2-c2cccc(-c3nn[nH]n3)c2)c1)N1CCC(F)(F)CC1` [MF-DH-515, (1-(3-(2H-tetrazol-5-yl)phenyl)-1H-pyrrolo[2,3-b]pyridin-5-yl)(4,4-difluoropiperidin-1-yl)methanone], for which the “MLM + NADPH (% remaining at 45 min)” value in series [1] stood at 103%. For the same compound, the IC50 on 15-PGDH/HPGD was less than 100 nM.

As to `NCCNC(=O)c1cccc(-n2ccc3cc(C(=O)N4CCC(F)(F)CC4)cnc32)c1` [MF-DH-467, N-(2-aminoethyl)-3-(5-(4,4-difluoropiperidine-1-carbonyl)-1H-pyrrolo[2,3-b]pyridin-1-yl)benzamide], the “MLM + NADPH (% remaining at 45 min)” value in series [1] was 90%. Besides, the IC50 at 15-PGDH/HPGD was in the range of 100 to 1000 nM.

In the case of `CC1(C)NC(=O)N(c2ccc(-n3ccc4cc(C(=O)N5CCC(F)(F)CC5)cnc43)cn2)C1=O` [MF-DH-457], in series [1], the “MLM + NADPH (% remaining at 45 min)” value is listed as 87%. Also, at 15-PGDH/HPGD, the IC50 was less than 100 nM.

In the case of `O=C(Nc1ccn(C2CC2)n1)c1cccc(-n2ccc3cc(C(=O)N4CCC(F)(F)CC4)cnc32)c1` [MF-DH-499, N-(1-cyclopropyl-1H-pyrazol-3-yl)-3-(5-(4,4-difluoropiperidine-1-carbonyl)-1H-pyrrolo[2,3-b]pyridin-1-yl)benzamide], the “MLM + NADPH (% remaining at 45 min)” value in series [1] amounted to 15%. Moreover, on 15-PGDH/HPGD, the IC50 was less than 100 nM.

As to `Cc1c(C(=O)N2CCC(F)CC2)cnc2c1ccn2-c1ccc(C#N)cc1` [MF-DH-387, 4-(5-(4-fluoropiperidine-1-carbonyl)-4-methyl-1H-pyrrolo[2,3-b]pyridin-1-yl)benzonitrile], the “MLM + NADPH (% remaining at 45 min)” value in series [1] was found to be 72%. Moreover, the IC50 on 15-PGDH/HPGD was less than 100 nM.

As for `CC(C)(C)c1ccc(NC(=O)c2cncc(-n3ccc4cc(C(=O)N5CCC(F)(F)CC5)cnc43)c2)cn1` [MF-DH-520, N-(6-(tert-butyl)pyridin-3-yl)-5-(5-(4,4-difluoropiperidine-1-carbonyl)-1H-pyrrolo[2,3-b]pyridin-1-yl)nicotinamide], the “MLM + NADPH (% remaining at 45 min)” value in series [1] is listed as 38%. Besides, on 15-PGDH/HPGD, the IC50 is less than 100 nM.

As to `O=C(c1cnc2c(ccn2-c2cc(Cl)cc(C(=O)N3CCS(=O)(=O)CC3)c2)c1)N1CCC(F)(F)CC1`, the “MLM + NADPH (% remaining at 45 min)” value in series [1] was determined as 37%. Moreover, the IC50 on 15-PGDH/HPGD is less than 100 nM.

On to `N#Cc1ccc(-n2cnc3cc(C(=O)N4CCC(F)(F)CC4)cnc32)cc1` [MF-DH-442], for which the IC50 at 15-PGDH/HPGD is less than 100 nM.

Turning to `O=C(c1cnc2c(ccn2-c2ccc(O)nc2)c1)N1CCC(F)CC1` [MF-DH-133], the IC50 at 15-PGDH/HPGD is less than 100 nM.

As to `NC(=O)c1ccc(-n2ccc3cc(C(=O)N4CCC(F)CC4)cnc32)cn1` [MF-DH-355], the IC50 at 15-PGDH/HPGD was less than 100 nM.

For `NCc1cccc(-n2ccc3cc(C(=O)N4CCCCC4)cnc32)c1` [MF-DH-303], on 15-PGDH/HPGD, the IC50 lay in the range of 100 to 1000 nM.

For the compound `O=C(c1ccc2c(c1)ncn2-c1ccc2c(c1)OCO2)N1CCCCC1` [MF-PGDH-062], the IC50 at 15-PGDH/HPGD was less than 100 nM.

Turning to `N#Cc1cccc(-n2ccc3cc(C(=O)N4CCCCC4)cnc32)c1` [MF-DH-300], on 15-PGDH/HPGD, the IC50 is less than 100 nM.

As for `O=C(c1cnc2c(ccn2-c2cnccn2)c1)N1CCC(F)CC1` [MF-DH-123], the half-maximal inhibitory concentration (IC50) at 15-PGDH/HPGD was less than 100 nM.

As a reminder, the IC50 is the concentration needed to halve the response being measured.
